Assay results taken from publication PMC8113459, “Selective inhibition of cullin 3 neddylation through covalent targeting DCN1 protects mice from acetaminophen-induced liver toxicity” (Nature Communications, 2021).

How the values were obtained:
DCN1 [1] = molecular target: T1, DCN1 (Homo sapiens, UniProt Q96GG9); assay: Intact-protein mass spectrometric analysis of covalent complex formation, Method A; format: binding; conditions: for Percentage of the formation of covalent complex with DCN1 protein: 37 °C
Source text: MassHunter Qualitative Analysis software (Agilent) was used to analyze the data. Intact protein masses were obtained using the maximum entropy deconvolution algorithm. The mass spectrometry data in Supplementary Figs. 1–11 were generated by Method A.
Target sequence in this assay (Q96GG9 58-259 limits assumed): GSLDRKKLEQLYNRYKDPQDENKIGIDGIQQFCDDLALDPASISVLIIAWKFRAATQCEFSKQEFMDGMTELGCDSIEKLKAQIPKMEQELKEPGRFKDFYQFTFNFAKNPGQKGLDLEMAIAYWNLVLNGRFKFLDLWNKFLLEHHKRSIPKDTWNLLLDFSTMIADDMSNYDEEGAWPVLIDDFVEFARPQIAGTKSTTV

Solubility = format: physicochemical
DCN1 [2] = molecular target: T1, DCN1; assay: Cocrystal structures of lyso-DCN1-inhibitor complexes; parameters: to DCN1 residues 62–251; His6 (N); TEV cleavage site (N); lysozyme residues 1–164 with C54T, C97A, A146T, D127A, R154A (fusion partner, N-terminal of DCN1); made in house; host or cells: Rosetta 2 cells (E. coli)
Description: Lysozyme–DCN1 gene was synthesized fusing lysozyme residues 1–164, containing mutations (C54T, C97A, A146T, D127A, and R154A), to DCN1 residues 62–251. Ligation independent cloning was utilized to clone the fused gene into an N-terminal His6–TEV expression vector. The clone was transformed into Rosetta 2 cells, grown in terrific broth at 37 °C, and expressed overnight with 0.4 mM isopropyl β-D-1-thiogalactopyranoside at 20 °C. Pelleted cells were freeze-thawed and lysed in 25 mM HEPES, pH 7.5, 150 mM NaCl, 0.1% β-mercaptoethanol and protease inhibitors. Cellular debris was removed via centrifugation. The supernatant was loaded onto a Ni-NTA (Qiagen) column at 4 °C. The column was washed with 25 mM HEPES, pH 7.5, 150 mM NaCl, and 20 mM imidazole, then protein eluted with buffer containing 300 mM imidazole. The eluate was applied to a Superdex 200 (GE Healthcare) equilibrated with 25 mM HEPES, pH 7.5, 200 mM NaCl, and 1 mM DTT. The protein was judged to be greater than 95% pure by SDS-PAGE, concentrated to 3.5 mg/mL and stored at −80 °C. Yield was 450 mg/L of expressed media.
Lyso–DCN1 protein was thawed and concentrated to 9.9 mg/mL in 25 mM HEPES, pH 7.5, 200 mM NaCl, and 1 mM DTT. Each compound was incubated with protein in a 1:1.2 protein to compound molar ratio overnight at 4 °C, then spun and setup in sitting drop vapor diffusion experiments. Crystallization drops contained 2 µL of protein–inhibitor solution and 1 µL of well solution. Crystals grew at 20 °C with well solution containing 28–33% PEG 3350 and 200 mM ammonium formate. Crystals were cryoprotected in 25 mM HEPES, pH 7.5, 200 mM NaCl, 30% PEG 3350, and 1 mM DTT.
Diffraction data were collected at a wavelength of 0.9786 Å on the APS LS-CAT 21-ID-G beamline at Argonne National Laboratory. Data were processed using HKL2000[44] and solved via molecular replacement using molrep[45] with two independent search models (lysozyme and DCN1) from PDB ID 5V83. The structures were iteratively fit and refined using Coot[46] and Buster[47]. […]
Target sequence in this assay (Q96GG9 62-251): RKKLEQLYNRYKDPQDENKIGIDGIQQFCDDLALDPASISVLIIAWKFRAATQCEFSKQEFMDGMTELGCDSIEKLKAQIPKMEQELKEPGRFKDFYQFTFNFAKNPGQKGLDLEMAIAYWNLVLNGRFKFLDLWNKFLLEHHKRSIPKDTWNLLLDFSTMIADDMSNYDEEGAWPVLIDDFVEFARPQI

[3] = 10 min incubation, 1.2-fold excess inhibitor

| SMILES | covalent complex formation / reaction kinetics with DCN1 protein (in words) (DCN1 [1]) | Percentage of the formation of covalent complex with DCN1 protein (DCN1 [1]; [3]) [%] | Percentage of the formation of covalent complex with DCN1 protein (DCN1 [1]; 180 min (3 h) incubation) [%] | Percentage of the formation of covalent complex with DCN1 protein (DCN1 [1]; 720 min (12 h) incubation) [%] | solubility (Solubility) | Percentage of the formation of covalent complex with DCN1 protein (DCN1 [1]; 60 min (1 h) incubation) [%] | covalent bond to Cys115 of DCN1 in the cocrystal structure (DCN1 [2]) |
| --- | --- | --- | --- | --- | --- | --- | --- |
| CCC(=O)N[C@@H](Cc1nc2ccc(C(C)C)cc2s1)C(=O)N[C@H](CNC(=O)CCl)C1CCCCC1 [compound 2] | slow reaction kinetics | 0 | 15 | 70 | poor solubility | – | – |
| C=CC(=O)NC[C@@H](NC(=O)[C@H](Cc1nc2ccc(C(C)C)cc2s1)NC(=O)CC)C1CCCCC1 [compound 3] | slow reaction kinetics | 0 | – | 40 | poor solubility | – | – |
| CCC(=O)N[C@@H](Cc1nc2ccc(C(C)C)cc2s1)C(=O)N[C@H](CNC(=O)/C=C/CN1CCOCC1)C1CCCCC1 [compound 4] | slower reaction kinetics than 3 or 5 | 0 | – | – | – | 0 | no covalent bond formed |
